Where two headings read alike, the source gives them in different places. Values belong to the molecule of their own block, whether it stands above or below them.
Legend:
CT-26 C2 tumor cells = test: CT-26 in vivo tumor reduction; parameters: species or system BALB/c female mouse; settings: CT-26, day 17 from start of dosing, oral QD
Protocol: Each BALB/c female mouse was inoculated subcutaneously at the right flank with CT-26 C2 tumor cells (0.3×10^6/mouse) in 0.1 mL PBS for tumor development. Treatments for the efficacy study were started on day 10 after tumor inoculation when the average tumor size reached approximately 71 mm^3. Each group consisted of 6 tumor-bearing mice. Vehicle control was 25 mM citrate buffer (pH 2.5). HSND80 was dosed orally QD at 15 mg/Kg for 4 days and 10 mg/Kg afterwards. HSND100 was dosed at 15 mg/Kg. Mice were dosed 5 days on and 2 days off (drug holiday). Tumors were measured every other day (L, W, H) to give tumor volume in mm^3.

[1] = system: MDA-MB-231 (breast cancer); test: Growth inhibition of MDA-MB-231 (NCI-60 human tumor cell line screen); assay type: cell-based; settings: NCI-60 screening
p70S6K = p70S6K (Homo sapiens, UniProt P23443); test: p70S6K inhibition, in vitro studies at Reaction Biology Corporation; assay type: biochemical; settings: 25 nM compound, [ATP]=10 uM
Sequence of p70S6K (P23443 whole entry): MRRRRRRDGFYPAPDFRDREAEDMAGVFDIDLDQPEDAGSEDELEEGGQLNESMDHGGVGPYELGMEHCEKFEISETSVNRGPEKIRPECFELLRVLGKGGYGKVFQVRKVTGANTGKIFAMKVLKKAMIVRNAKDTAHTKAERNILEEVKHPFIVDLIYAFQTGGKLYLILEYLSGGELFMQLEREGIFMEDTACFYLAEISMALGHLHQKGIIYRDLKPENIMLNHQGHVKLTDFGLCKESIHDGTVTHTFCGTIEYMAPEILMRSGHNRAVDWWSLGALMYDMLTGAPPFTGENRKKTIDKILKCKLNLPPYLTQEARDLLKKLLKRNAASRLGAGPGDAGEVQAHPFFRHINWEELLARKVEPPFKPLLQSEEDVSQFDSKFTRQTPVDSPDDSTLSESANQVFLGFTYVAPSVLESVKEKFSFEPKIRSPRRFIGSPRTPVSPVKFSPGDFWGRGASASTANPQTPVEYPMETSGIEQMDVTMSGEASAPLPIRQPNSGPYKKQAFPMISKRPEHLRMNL
Protocol: The nature of the substituent on the imidazo[1,2-b]pyridazine moiety at position-6 was evaluated in in vitro studies performed at Reaction Biology Corporation (Malvern, PA). The results indicated the specific substituent dramatically affected the inhibition of p70S6K.

MNK2 = MNK2 (Homo sapiens, UniProt Q9HBH9); test: MNK2 inhibition, in vitro studies at Reaction Biology Corporation; assay type: biochemical; settings: 50 nM compound, 10 uM ATP
Sequence of MNK2 (Q9HBH9 whole entry): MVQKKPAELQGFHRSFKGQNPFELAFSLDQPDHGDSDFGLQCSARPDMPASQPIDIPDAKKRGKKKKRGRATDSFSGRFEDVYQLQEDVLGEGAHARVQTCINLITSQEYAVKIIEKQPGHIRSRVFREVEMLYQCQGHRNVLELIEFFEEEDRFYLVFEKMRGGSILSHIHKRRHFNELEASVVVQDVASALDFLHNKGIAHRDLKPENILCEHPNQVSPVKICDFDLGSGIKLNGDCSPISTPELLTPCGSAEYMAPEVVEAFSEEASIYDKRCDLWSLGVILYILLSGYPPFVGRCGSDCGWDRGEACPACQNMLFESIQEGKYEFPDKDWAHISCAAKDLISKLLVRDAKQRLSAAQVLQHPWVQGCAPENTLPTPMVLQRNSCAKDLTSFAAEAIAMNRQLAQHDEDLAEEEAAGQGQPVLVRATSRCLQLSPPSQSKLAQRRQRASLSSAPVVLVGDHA

[2] = target: T1, AXL receptor tyrosine kinase (AXL) (Homo sapiens, UniProt P30530); test: KINOMEscan competition binding assay (Eurofins DiscoverX), AXL
T1 construct: purchased Eurofins DiscoverX (KINOMEscan service)
T1 sequence (P30530 26-894): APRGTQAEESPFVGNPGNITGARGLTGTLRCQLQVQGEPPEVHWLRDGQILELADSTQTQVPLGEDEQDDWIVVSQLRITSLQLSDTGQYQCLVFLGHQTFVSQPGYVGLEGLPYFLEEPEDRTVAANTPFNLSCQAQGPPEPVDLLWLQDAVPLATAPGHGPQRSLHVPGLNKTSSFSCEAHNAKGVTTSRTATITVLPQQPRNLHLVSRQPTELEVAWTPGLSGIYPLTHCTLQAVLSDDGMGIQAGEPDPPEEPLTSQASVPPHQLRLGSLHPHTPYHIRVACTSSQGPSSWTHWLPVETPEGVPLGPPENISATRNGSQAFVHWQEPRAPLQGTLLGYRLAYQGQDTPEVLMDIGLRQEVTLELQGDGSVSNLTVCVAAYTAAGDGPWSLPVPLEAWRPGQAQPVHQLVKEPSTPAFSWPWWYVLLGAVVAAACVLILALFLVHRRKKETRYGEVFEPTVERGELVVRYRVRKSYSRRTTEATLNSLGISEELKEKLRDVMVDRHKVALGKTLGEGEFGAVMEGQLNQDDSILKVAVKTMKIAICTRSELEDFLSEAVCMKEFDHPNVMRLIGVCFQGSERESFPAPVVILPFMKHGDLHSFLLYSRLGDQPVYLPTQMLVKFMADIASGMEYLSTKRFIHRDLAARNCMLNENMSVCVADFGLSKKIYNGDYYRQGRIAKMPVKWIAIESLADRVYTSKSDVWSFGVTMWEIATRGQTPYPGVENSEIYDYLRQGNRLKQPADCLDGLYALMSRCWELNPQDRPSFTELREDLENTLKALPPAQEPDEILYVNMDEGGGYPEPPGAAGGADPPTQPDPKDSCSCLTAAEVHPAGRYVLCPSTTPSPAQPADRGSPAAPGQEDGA
Protocol: The affinity of several compounds hereof having a substituent on the imidazo[1,2-b]pyridazine moiety at position-6, wherein the substituent comprised one or more ring moieties was evaluated with respect to two TAM kinases: AXL and MERTK. […] The assay uses DNA-tagged kinase, an immobilized ligand, and the test compound. Quantitative polymerase chain reaction (PCR) of the DNT tag was then used to measure the ability of the tested compound to displace the immobilized ligand.

[3] = target: T2, MER Proto-Oncogene tyrosine kinase (MERTK) (Homo sapiens, UniProt Q12866); test: KINOMEscan competition binding assay (Eurofins DiscoverX), MERTK
T2 construct: purchased Eurofins DiscoverX (KINOMEscan service)
T2 sequence (Q12866 21-999): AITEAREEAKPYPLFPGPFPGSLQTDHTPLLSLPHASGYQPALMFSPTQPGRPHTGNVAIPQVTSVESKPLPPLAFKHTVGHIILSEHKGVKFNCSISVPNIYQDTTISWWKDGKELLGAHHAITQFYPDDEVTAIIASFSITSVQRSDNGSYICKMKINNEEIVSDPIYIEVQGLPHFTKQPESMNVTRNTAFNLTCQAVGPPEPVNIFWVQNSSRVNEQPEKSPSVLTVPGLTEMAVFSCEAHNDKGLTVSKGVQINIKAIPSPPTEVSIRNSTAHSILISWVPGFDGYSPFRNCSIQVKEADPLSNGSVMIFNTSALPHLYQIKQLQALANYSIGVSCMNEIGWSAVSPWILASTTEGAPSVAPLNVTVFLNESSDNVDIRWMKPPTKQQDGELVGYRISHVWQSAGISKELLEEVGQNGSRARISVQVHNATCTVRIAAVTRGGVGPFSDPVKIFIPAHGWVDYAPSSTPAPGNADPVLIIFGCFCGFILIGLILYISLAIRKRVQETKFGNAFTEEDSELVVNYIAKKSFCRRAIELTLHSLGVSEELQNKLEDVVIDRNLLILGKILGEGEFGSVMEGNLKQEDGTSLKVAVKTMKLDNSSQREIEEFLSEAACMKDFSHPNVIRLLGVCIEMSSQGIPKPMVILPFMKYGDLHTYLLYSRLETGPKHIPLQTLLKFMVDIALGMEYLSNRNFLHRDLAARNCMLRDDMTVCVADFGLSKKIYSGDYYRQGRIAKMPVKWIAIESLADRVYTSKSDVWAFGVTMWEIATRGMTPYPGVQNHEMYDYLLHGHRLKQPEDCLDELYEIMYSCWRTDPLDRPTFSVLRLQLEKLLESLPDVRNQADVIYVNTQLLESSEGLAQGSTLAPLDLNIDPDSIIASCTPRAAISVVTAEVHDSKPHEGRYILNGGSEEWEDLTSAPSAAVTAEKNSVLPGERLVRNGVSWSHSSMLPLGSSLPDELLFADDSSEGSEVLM
Protocol: The affinity of several compounds hereof having a substituent on the imidazo[1,2-b]pyridazine moiety at position-6, wherein the substituent comprised one or more ring moieties was evaluated with respect to two TAM kinases: AXL and MERTK. Perhaps more specifically, the equilibrium dissociation constant between each of compounds HSND141, compound HSND149, HSND150, HSND151, and HSND80 and AXL and MERTK was evaluated at Eurofins DiscoverX using KINOMEscan™, which is a competition binding assay that quantitively measured the ability of each tested compound to displace an immobilized, active-site directed ligand. The assay uses DNA-tagged kinase, an immobilized ligand, and the test compound. Quantitative polymerase chain reaction (PCR) of the DNT tag was then used to measure the ability of the tested compound to displace the immobilized ligand.

[4] = patients on ponatinib; cited from earlier work
[5] = Table 1, DiscoverX Eurofins, read-out: Kd AXL
[6] = Table 1, DiscoverX Eurofins, read-out: Kd MERTK

SMILES: CC1CN(c2ccc3ncc(C#Cc4cncc(C(=O)Nc5ccc(CN6CCN(C)CC6)c(C(F)(F)F)c5)c4)n3n2)C[C@@H](C)O1 (stereo in doubt) [HSND100, 5-((6-((2R,6R)-2,6-Dimethylmorpholino)imidazo[1,2-b]pyridazin-3-yl)ethynyl)-N-(4-((4-methylpiperazin-1-yl)methyl)-3-(trifluoromethyl)phenyl)nicotinamide]
tumor reduction compared to vehicle control (CT-26 C2 tumor cells): 36%

SMILES: CN1CCN(Cc2ccc(NC(=O)c3cncc(C#Cc4cnc5ccc(N)nn45)c3)cc2C(F)(F)F)CC1 [HSND37, 5-((6-Aminoimidazo[1,2-b]pyridazin-3-yl)ethynyl)-N-(4-((4-methylpiperazin-1-yl)methyl)-3-(trifluoromethyl)phenyl)nicotinamide]
GI50 [1]: 413 nM

SMILES: CN(C)CCNc1ccc2ncc(C#Cc3cncc(C(=O)Nc4ccc(CN5CCN(C)CC5)c(C(F)(F)F)c4)c3)n2n1 [HSND39, 5-((6-((2-(Dimethylamino)ethyl)amino)imidazo[1,2-b]pyridazin-3-yl)ethynyl)-N-(4-((4-methylpiperazin-1-yl)methyl)-3-(trifluoromethyl)phenyl)nicotinamide]
GI50 [1]: 571 nM

SMILES: CN(C)CCN(C)c1ccc2ncc(C#Cc3cncc(C(=O)Nc4ccc(CN5CCN(C)CC5)c(C(F)(F)F)c4)c3)n2n1 [HSND40, 5-((6-((2-(Dimethylamino)ethyl)(methyl)amino)imidazo[1,2-b]pyridazin-3-yl)ethynyl)-N-(4-((4-methylpiperazin-1-yl)methyl)-3-(trifluoromethyl)phenyl)nicotinamide]
GI50 [1]: 889 nM

SMILES: CN1CCN(Cc2ccc(NC(=O)c3cncc(C#Cc4cnc5ccc(N6CCOCC6)nn45)c3)cc2C(F)(F)F)CC1 [HSND41, N-(4-((4-Methylpiperazin-1-yl)methyl)-3-(trifluoromethyl)phenyl)-5-((6-morpholinoimidazo[1,2-b]pyridazin-3-yl)ethynyl)nicotinamide]
GI50 [1]: 35 nM

inhibition of p70S6K (p70S6K): 95%
inhibition at 0.05 µM (MNK2): 92%
SMILES: CN1CCN(Cc2ccc(NC(=O)c3cncc(C#Cc4cnc5ccc(N6CCN(C)CC6)nn45)c3)cc2C(F)(F)F)CC1 [HSND77, 5-((6-(4-Methylpiperazin-1-yl)imidazo[1,2-b]pyridazin-3-yl)ethynyl)-N-(4-((4-methylpiperazin-1-yl)methyl)-3-(trifluoromethyl)phenyl)nicotinamide]

inhibition of p70S6K (p70S6K): 95%
inhibition at 0.05 µM (MNK2): 94%
SMILES: CN1CCN(Cc2ccc(NC(=O)c3cncc(C#Cc4cnc5ccc(N6CCSCC6)nn45)c3)cc2C(F)(F)F)CC1 [HSND79, N-(4-((4-Methylpiperazin-1-yl)methyl)-3-(trifluoromethyl)phenyl)-5-((6-thiomorpholinoimidazo[1,2-b]pyridazin-3-yl)ethynyl)nicotinamide]

SMILES: CN1CCN(Cc2ccc(NC(=O)c3cncc(C#Cc4cnc5ccc(N6C7CCC6COC7)nn45)c3)cc2C(F)(F)F)CC1 [HSND141, 5-((6-(3-Oxa-8-azabicyclo[3.2.1]octan-8-yl)imidazo[1,2-b]pyridazin-3-yl)ethynyl)-N-(4-((4-methylpiperazin-1-yl)methyl)-3-(trifluoromethyl)phenyl)nicotinamide]
Kd [2]: 1.2 nM
Kd [3]: 0.22 nM

Kd [2, 5]: 3.7 nM
Kd [3, 6]: 0.2 nM
SMILES: CN1CCN(Cc2ccc(NC(=O)c3cncc(C#Cc4cnc5ccc(N6CC7(COC7)C6)nn45)c3)cc2C(F)(F)F)CC1 [HSND149, 5-((6-(2-Oxa-6-azaspiro[3.3]heptan-6-yl)imidazo[1,2-b]pyridazin-3-yl)ethynyl)-N-(4-((4-methylpiperazin-1-yl)methyl)-3-(trifluoromethyl)phenyl)nicotinamide]

Kd [2, 5]: 2.8 nM
Kd [3, 6]: < 0.17 nM
SMILES: CN1CCN(Cc2ccc(NC(=O)c3cncc(C#Cc4cnc5ccc(N6C[C@H]7C[C@@H]6CO7)nn45)c3)cc2C(F)(F)F)CC1 [HSND150, 5-((6-((1R,4R)-2-Oxa-5-azabicyclo[2.2.1]heptan-5-yl)imidazo[1,2-b]pyridazin-3-yl)ethynyl)-N-(4-((4-methylpiperazin-1-yl)methyl)-3-(trifluoromethyl)phenyl)nicotinamide]

Kd [2, 5]: 3.3 nM
Kd [3, 6]: < 0.17 nM
SMILES: CN1CCN(Cc2ccc(NC(=O)c3cncc(C#Cc4cnc5ccc(N6C[C@@H]7C[C@H]6CO7)nn45)c3)cc2C(F)(F)F)CC1 [HSND151, 5-((6-((1S,4S)-2-Oxa-5-azabicyclo[2.2.1]heptan-5-yl)imidazo[1,2-b]pyridazin-3-yl)ethynyl)-N-(4-((4-methylpiperazin-1-yl)methyl)-3-(trifluoromethyl)phenyl)nicotinamide]

SMILES: Cc1ccc(C(=O)Nc2ccc(CN3CCN(C)CC3)c(C(F)(F)F)c2)cc1C#Cc1cnc2cccnn12 [ponatinib, Ponatinib, reference compound]
inhibition of p70S6K (p70S6K): 38%
patients developing some form of thrombosis [4]: about 40%
